This is an account of results in article PMC12348660, “Synthesis, Characterization, HSA/DNA Binding, and Cytotoxic Activity of [RuCl2(η^6-p-cymene)(bph-κN)] Complex” (Molecules, 2025).

This assay addresses T1, human serum albumin (HSA) (Homo sapiens, UniProt P02768).
T1 construct: gene ALB
The assay is described as follows: intrinsic tryptophan fluorescence quenching titration (Stern-Volmer, double-log), […]-310 K. It is filed as binding. To be noted: read-out: Kb [M^-1] (converted).

T1 sequence (P02768 25-609): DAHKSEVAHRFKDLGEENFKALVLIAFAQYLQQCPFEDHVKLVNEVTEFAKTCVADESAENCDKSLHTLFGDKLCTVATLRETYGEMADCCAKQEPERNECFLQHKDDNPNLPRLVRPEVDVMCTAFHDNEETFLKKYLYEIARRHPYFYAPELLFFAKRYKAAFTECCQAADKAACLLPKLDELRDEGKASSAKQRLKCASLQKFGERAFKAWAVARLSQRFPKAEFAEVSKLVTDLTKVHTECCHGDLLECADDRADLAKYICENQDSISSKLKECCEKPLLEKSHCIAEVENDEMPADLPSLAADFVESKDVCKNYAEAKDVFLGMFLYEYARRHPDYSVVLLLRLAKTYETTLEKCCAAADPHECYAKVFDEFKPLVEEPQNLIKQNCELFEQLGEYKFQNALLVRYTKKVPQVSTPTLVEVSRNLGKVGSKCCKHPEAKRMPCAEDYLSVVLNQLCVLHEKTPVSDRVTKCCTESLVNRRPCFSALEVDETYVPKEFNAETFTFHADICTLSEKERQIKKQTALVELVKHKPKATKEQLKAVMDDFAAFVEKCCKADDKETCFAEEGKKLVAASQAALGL

Turning to “dichlorido((diphenylmethylidene)hydrazine-κN)(η^6-p-cymene)ruthenium(II) [compound 1]”, the Kd was 60.6 µM.
